Test results as given in patent US20260262647A1, “Synergistic Compositions Containing Guanidine” (Thor GmbH, priority 2023, published 2026).
Where “and” joins values, the source holds several entries; their conditions need not be identical. Equal entries are not always repeated.

Tested on: Pseudomonas spec. DSM 115322
Assay: Minimum inhibitory concentrations and synergy index in Müller-Hinton broth
Format: cell-based
Experimental: Test organisms used were Gram-negative bacterial species from the group of pseudomonads, Pseudomonas putida DSM 115323 and Pseudomonas spec. DSM 115322. For this purpose, mixtures with different concentrations of the respective active substances were prepared and tested for their effect on the pseudomonads. The test was run in Müller-Hinton broth MHB with a cell density of 10^6 microbes per ml. When organic acids are used as a combination partner with the guanidine, MHB was adjusted to pH 5.5.
The incubation was run in microplates at 30° C. for 48 hours. After 48 hours, the batches were evaluated for turbidity resulting from growth, and optical density was additionally determined photometrically. In this way, the minimum inhibitory concentrations (MICs) of the two actives were determined individually and in combination.
The calculation was done according to the standard method of F. C. Kull et al., Applied Microbiology, vol. 9 (1961), p. 538.
This involves calculating the synergy index (SI) by the following formula:
[formula] • Qa=concentration of component A in the A+B mixture • QA=concentration of component A as the sole biocide • Qb=concentration of component B in the A+B mixture • QB=concentration of component B as the sole biocide
If the synergy index is greater than 1, this means that there is antagonism. If the synergy index assumes the value 1, this means that the effect of the two biocides/compounds is additive. If the synergy index assumes a value of less than 1, this means that there is synergism between the two biocides/compounds.

[1] = mixture with guanidine, Qa, 48 hours at 30° C.

In the case of `OCCCc1ccccc1`, the “Synergy index Qa/QA + Qb/QB” value (guanidine and phenylpropanol, Qa) is reported as 1.00 and the “QB: Concentration of phenylpropanol as the sole agent that shows an endpoint” value (phenylpropanol alone, 48 hours at 30° C.) is reported as 2000 ppm.
For `CCC(N)(CO)CO` [AEPD, 2-aminoethylpropane-1,3-diol], the “QB: Concentration of AEPD as the sole agent that shows an endpoint” value (AEPD alone, 48 hours at 30° C.) was 5000 ppm and the “Synergy index Qa/QA + Qb/QB” value (guanidine and AEPD, Qa) was 1.00.
For `CC(C)(N)CO` [AMP, 2-amino-2-methyl-1-propanol], the “QB: Concentration of AMP as the sole agent that shows an endpoint” value (AMP alone, 48 hours at 30° C.) was 2500 ppm and the “Synergy index Qa/QA + Qb/QB” value (guanidine and AMP, Qa) was 1.00.
`CCCCn1sc2ccccc2c1=O` [BBIT, N-butyl-1,2-benzisothiazolin-3-one] was tested, and the “QB: Concentration of BBIT as the sole agent that shows an endpoint” value (BBIT alone, 48 hours at 30° C.) was 400 ppm and the “Synergy index Qa/QA + Qb/QB” value (guanidine and BBIT, Qa) was 1.00.
In the case of `N#CCCC(Br)(C#N)CBr` (stereo not drawn) [DBDCB, dibromodicyanobutane], the “QB: Concentration of DBDCB as the sole agent that shows an endpoint” value (DBDCB alone, 48 hours at 30° C.) is reported as 250 ppm and the “Synergy index Qa/QA + Qb/QB” value (guanidine and DBDCB, Qa) is reported as 1.00.
With `N#CC(Br)(Br)C(N)=O` [DBNPA, dibromonitrilopropionamide] the “QB: Concentration of DBNPA as the sole agent that shows an endpoint” value (DBNPA alone, 48 hours at 30° C.) was 25 ppm and the “Synergy index Qa/QA + Qb/QB” value (guanidine and DBNPA, Qa) was 1.00.
In the case of `O=C(O)CN(CCN(CC(=O)O)CC(=O)O)CC(=O)O` [EDTA, ethylenediaminetetraacetic acid], the “QB: Concentration of EDTA as the sole agent that shows an endpoint” value (EDTA alone, 48 hours at 30° C.) is reported as 300 ppm, the “Synergy index Qa/QA + Qb/QB” value (guanidine and EDTA, Qa) is reported as 1.00 and the “Qb (EDTA): Concentration of EDTA in the mixture that shows an endpoint” value [1] is reported as 250 ppm and 200 ppm and 175 ppm and 125 ppm.
In the case of `CCCCC(CC)COCC(O)CO` (stereo not drawn) [EHG, ethylhexylglycerol], the “QB: Concentration of EHG as the sole agent that shows an endpoint” value (EHG alone, 48 hours at 30° C.) is reported as 2000 ppm and the “Synergy index Qa/QA + Qb/QB” value (guanidine and EHG, Qa) is reported as 1.00.
For `CC(O)(P(=O)(O)O)P(=O)(O)O` [HEDP, (1-hydroxyethylidene)bisphosphonic acid], the “QB: Concentration of HEDP as the sole agent that shows an endpoint” value (HEDP alone, 48 hours at 30° C.) was 300 ppm, the “Synergy index Qa/QA + Qb/QB” value (guanidine and HEDP, Qa) was 1.00 and the “Qb (HEDP): Concentration of HEDP in the mixture that shows an endpoint” value [1] was 1000 ppm.
With `Cn1sc2ccccc2c1=O` [MBIT, N-methyl-1,2-benzisothiazolin-3-one] the “QB: Concentration of MBIT as the sole agent that shows an endpoint” value (MBIT alone, 48 hours at 30° C.) was 300 ppm and the “Synergy index Qa/QA + Qb/QB” value (guanidine and MBIT, Qa) was 1.00.
With `NCCO` [MEA, monoethanolamine] the “QB: Concentration of MEA as the sole agent that shows an endpoint” value (MEA alone, 48 hours at 30° C.) was 2000 ppm and the “Synergy index Qa/QA + Qb/QB” value (guanidine and MEA, Qa) was 1.00.
In the case of `Cn1sccc1=O` [MIT, 2-methyl-4-isothiazolin-3-one], the “QB: Concentration of MIT as the sole agent that shows an endpoint” value (MIT alone, 48 hours at 30° C.) is reported as 75 ppm and the “Synergy index Qa/QA + Qb/QB” value (guanidine and MIT, Qa) is reported as 1.00.
`CCCCCCCCn1sccc1=O` [OIT, octylisothiazolinone] was tested, and the “QB: Concentration of OIT as the sole agent that shows an endpoint” value (OIT alone, 48 hours at 30° C.) was 250 ppm and the “Synergy index Qa/QA + Qb/QB” value (guanidine and OIT, Qa) was 1.00.
`O=C(O)c1ccccc1` [benzoic acid] was tested, and the “QB: Concentration of benzoic acid as the sole agent that shows an endpoint” value (benzoic acid (added as sodium benzoate) alone, MHB adjusted to pH 5.5, 48 hours at 30° C.) was 1680 ppm and the “Synergy index Qa/QA + Qb/QB” value (guanidine and benzoic acid, Qa, pH 5.5) was 1.00.
For `OCc1ccccc1` [benzyl alcohol], the “QB: Concentration of benzyl alcohol as the sole agent that shows an endpoint” value (benzyl alcohol alone, 48 hours at 30° C.) was 2000 ppm and the “Synergy index Qa/QA + Qb/QB” value (guanidine and benzyl alcohol, Qa) was 1.00.
In the case of `O=[N+]([O-])C(Br)(CO)CO` [bronopol], the “QB: Concentration of bronopol as the sole agent that shows an endpoint” value (bronopol alone, 48 hours at 30° C.) is reported as 25 ppm and the “Synergy index Qa/QA + Qb/QB” value (guanidine and bronopol, Qa) is reported as 1.00.
`O=C(O)CC(O)(CC(=O)O)C(=O)O` [citric acid] was tested, and the “QB: Concentration of citric acid as the sole agent that shows an endpoint” value (citric acid (added as trisodium citrate) alone, MHB adjusted to pH 5.5, 48 hours at 30° C.) was 51293 ppm.
In the case of `CCCCCC(O)CO` (stereo not drawn) [heptane-1,2-diol], the “Synergy index Qa/QA + Qb/QB” value (guanidine and heptane-1,2-diol, Qa) is reported as 1.00 and the “QB: Concentration of heptane-1,2-diol as the sole agent that shows an endpoint” value (heptane-1,2-diol alone, 48 hours at 30° C.) is reported as 3750 ppm.
`CCCCC(O)CO` (stereo not drawn) [hexane-1,2-diol] was tested, and the “Synergy index Qa/QA + Qb/QB” value (guanidine and hexane-1,2-diol, Qa) was 1.00 and the “QB: Concentration of hexane-1,2-diol as the sole agent that shows an endpoint” value (hexane-1,2-diol alone, 48 hours at 30° C.) was 7500 ppm.
For `CCCCCCOCC(O)CO` (stereo not drawn) [hexylglycerol], the “Synergy index Qa/QA + Qb/QB” value (guanidine and hexylglycerol, Qa) was 1.00 and the “QB: Concentration of hexylglycerol as the sole agent that shows an endpoint” value (hexylglycerol alone, 48 hours at 30° C.) was 2000 ppm.
`CC(C)O` [isopropanol] was tested, and the “Synergy index Qa/QA + Qb/QB” value (guanidine and isopropanol, Qa) was 1.00 and the “QB: Concentration of isopropanol as the sole agent that shows an endpoint” value (isopropanol alone, 48 hours at 30° C.) was 60000 ppm.
In the case of `CC(O)C(=O)O` (stereo not drawn) [lactic acid], the “Synergy index Qa/QA + Qb/QB” value (guanidine and lactic acid, Qa, pH 5.5) is reported as 1.00 and the “QB: Concentration of lactic acid as the sole agent that shows an endpoint” value (lactic acid (added as sodium L-lactate) alone, MHB adjusted to pH 5.5, 48 hours at 30° C.) is reported as 15896 ppm.
For `Oc1ccccc1-c1ccccc1` [oPP, o-phenylphenol], the “Synergy index Qa/QA + Qb/QB” value (guanidine and oPP, Qa) was 1.00 and the “QB: Concentration of oPP as the sole agent that shows an endpoint” value (oPP alone, 48 hours at 30° C.) was 750 ppm.
`CCCCCCC(O)CO` (stereo not drawn) [octane-1,2-diol] was tested, and the “Synergy index Qa/QA + Qb/QB” value (guanidine and octane-1,2-diol, Qa) was 1.00 and the “QB: Concentration of octane-1,2-diol as the sole agent that shows an endpoint” value (octane-1,2-diol alone, 48 hours at 30° C.) was 2000 ppm.
With `CCCC(O)CO` (stereo not drawn) [pentane-1,2-diol] the “Synergy index Qa/QA + Qb/QB” value (guanidine and pentane-1,2-diol, Qa) was 1.00 and the “QB: Concentration of pentane-1,2-diol as the sole agent that shows an endpoint” value (pentane-1,2-diol alone, 48 hours at 30° C.) was 10000 ppm.
